The text below walks through data of paper PMC11166409 (Transfusion Medicine and Hemotherapy, 2024).

Residues, ends and D or L forms follow the SMILES beside them.

This assay addresses HLA-A*02:01 (Homo sapiens, UniProt P04439, D140Y/D185E/D98H/E176V/E277Q/G131W/G231S/I119V/I121R/I166T/I218V/L300P/L318F/N151K/N90K/P208A/P217A/Q86G/Q94H/R138H/R169H/T345S). Nature of the assay: Competition-based peptide binding assay on EBV-LCL48 cells.

Consider `CC[C@H](C)[C@H](NC(=O)[C@@H](N)Cc1ccc(O)cc1)C(=O)N[C@@H](Cc1ccc(O)cc1)C(=O)N[C@@H](CC(N)=O)C(=O)N[C@@H](CCCNC(=N)N)C(=O)N[C@@H](CCC(=O)O)C(=O)N[C@@H](CCC(=O)O)C(=O)N[C@@H](CC(C)C)C(=O)N[C@H](C(=O)O)C(C)C` (H-YIYNREELV-OH), for which the IC50 – broadly, the midpoint of a concentration-inhibition curve – is 3.9 µM. Take `CC[C@H](C)[C@H](NC(=O)[C@@H](N)Cc1ccc(O)cc1)C(=O)N[C@@H](Cc1ccc(O)cc1)C(=O)N[C@@H](CC(N)=O)C(=O)N[C@@H](CCCNC(=N)N)C(=O)N[C@@H](CCC(=O)O)C(=O)N[C@@H](CCC(=O)O)C(=O)N[C@@H](Cc1ccccc1)C(=O)N[C@H](C(=O)O)C(C)C` (H-YIYNREEFV-OH): the IC50 worked out at 4.9 µM.
